Reference: the supplement of paper PMC4862054

What was measured:
Assay in all cases: normalised viability (% of control), CellTiter-Blue; higher = more viable cells (100 = DMSO, 0 = benzethonium chloride kill control)
Conditions in all cases: incubation time: 72 h
MFM-223 = tested on: MFM-223
Procedure: (§1)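 DSRT, CellTiter-Blue viability, 72 h incubation. Signal is normalised to DMSO and benzethonium chloride controls. Value is the normalised response at dose 1.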

HCC1937 = tested on: HCC1937
Procedure: as §1

MDA-MB-231 = tested on: MDA-MB-231
Procedure: as §1

MDA-MB-468 = tested on: MDA-MB-468
Procedure: as §1

MDA-MB-436 = tested on: MDA-MB-436
Procedure: as §1

CAL-120 = tested on: CAL-120
Procedure: as §1

MDA-MB-453 = tested on: MDA-MB-453
Procedure: as §1

SK-BR-3 = tested on: SK-BR-3
Procedure: as §1

BT-474 = tested on: BT-474
Procedure: as §1

HDQ-P1 = tested on: HDQ-P1
Procedure: as §1

CAL-148 = tested on: CAL-148
Procedure: as §1

Hs578T = tested on: Hs578T
Procedure: as §1

HCC1143 = tested on: HCC1143
Procedure: as §1

BT-549 = tested on: BT-549
Procedure: as §1

HCC1599 = tested on: HCC1599
Procedure: as §1

CAL-85-1 = tested on: CAL-85-1
Procedure: as §1

DU-4475 = tested on: DU-4475
Procedure: as §1

CAL-51 = tested on: CAL-51
Procedure: as §1

Compound	normalised viability (MFM-223)	normalised viability (HCC1937)	normalised viability (MDA-MB-231)	normalised viability (MDA-MB-468)	normalised viability (MDA-MB-436)	normalised viability (CAL-120)	normalised viability (MDA-MB-453)	normalised viability (SK-BR-3)	normalised viability (BT-474)	normalised viability (HDQ-P1)	normalised viability (CAL-148)	normalised viability (Hs578T)	normalised viability (HCC1143)	normalised viability (BT-549)	normalised viability (HCC1599)	normalised viability (CAL-85-1)	normalised viability (DU-4475)	normalised viability (CAL-51)
COc1cc(Nc2ncc(F)c(Nc3ccc4c(n3)NC(=O)C(C)(C)O4)n2)cc(OC)c1OC [R406] (1 nM)	93.3%	91.6%	95.7%	94.1%	92.1%	83.5%	106%	102%	117%	116%	110%	116%	91.6%	97%	101%	84.8%	112%	106%
c1ccc(C2CN3CCSC3=N2)cc1 (centres undefined) [Tetramisole] (1 nM)	98.5%	94.3%	99.2%	112%	102%	118%	106%	116%	80.2%	126%	117%	110%	107%	97.8%	95.3%	96.5%	83%	91.6%
CCCC(CCC)C(=O)O [Valproic acid] (1 nM)	104%	115%	97.7%	102%	89.9%	105%	108%	103%	99%	119%	103%	130%	99.1%	98.6%	83.6%	95.3%	109%	99.8%
